We go through one compound from paper PMC8126241, “Active Components from Cassia abbreviata Prevent HIV-1 Entry by Distinct Mechanisms of Action” (International Journal of Molecular Sciences, 2021).

Each structure is given as a SMILES string. Like-named read-outs stand apart in the source and are kept apart here.

Series [1] deals with non-B HIV-1 primary clinical isolate #1. As to the kind of experiment: microbe, parasite or virus in culture. The following applies: Human immunodeficiency virus 1, PBMC, 168 h, read-out: IC50 non-B HIV-1 primary clinical isolate (first named).
Series [2] relates to Punta toro virus. As to the kind of experiment: Broad spectrum antiviral activity, vero cells. The series is classed as cell-based.
In series [3] the test system is Herpes simplex virus-2 (G). As to the kind of experiment: Broad spectrum antiviral activity, HEL cells. The conditions noted are these: Human alphaherpesvirus 2, HEL. The series is classed as cell-based.
Series [4] deals with Feline corona virus (FIPV). As to the kind of experiment: Broad spectrum antiviral activity, CRFK cells. Format: cell-based. The conditions noted are these: Alphacoronavirus 1.
For series [5], the system named is Feline herpes virus. As to the kind of experiment: Broad spectrum antiviral activity, CRFK cells. Format: cell-based.
Series [6] has as its target T1, CXCR4 (Homo sapiens, UniProt P61073).
T1 construct: host or cells: U373-CD4-CXCR4 cells
As to the kind of experiment: Binding competition with anti-CXCR4 antibody 12G5. The conditions noted are these: anti-CXCR4 antibody 12G5, U373-CD4-CXCR4 cells.

For series [7], the system named is HIV-1 ADA-M. As to the kind of experiment: microbe, parasite or virus in culture. The conditions noted are these: Human immunodeficiency virus 1, PBMC, 168 h, read-out: IC50 HIV-1 ADA-M.
Series [8] addresses T2, CCR5 (Homo sapiens, UniProt P51681).
T2 construct: host or cells: U373-CD4-CCR5 cells
As to the kind of experiment: Binding competition with anti-CCR5 antibody 2D7. The following applies: anti-CCR5 antibody 2D7, U373-CD4-CCR5 cells. How it is done: (§1) Binding competition between increasing concentrations of compounds and FITC-conjugated mouse anti-human CD4 clone RPA-4 (Biolegend, Amsterdam, Netherlands), PE-conjugated mouse anti-Human CXCR4 clone 12G5, and PE-conjugated mouse anti-human CCR5 clone 2D7 (BD Pharma, Aalst, Belgium) to U373-CD4-CXCR4 and U373-CD4-CCR5 cells was first tested by flow cytometry (FACSCanto). […] After 1 h of incubation at 4 °C, cells were washed with FACS buffer (1% bovine serum albumin, 0.1% N3Na in PBS, Sigma), and Mean Fluorescence Intensity (MFI) was measured. […] Internalization was stopped after 30 min by addition of NaN3 (0.1%) on ice. Cells were stained with anti-human CXCR4 clone 4G10 (BD, Belgium) or anti-human CCR5 (CD195) clone T21/8, (eBioscience, Asse, Belgium), Near-IR fluorescent reactive dye during 1 h at 4 °C, washed with FACS buffer, and a secondary PE-conjugated goat anti-mouse antibody (Jackson ImmunoResearch, West Grove, PA, USA).

For series [9], the target named is T3, CD4 (Homo sapiens, UniProt P01730).
T3 construct: host or cells: U373-CD4-CXCR4 and U373-CD4-CCR5 cells
As to the kind of experiment: Binding competition with anti-CD4 antibodies. The conditions noted are these: antibodies OKT4 and RPA-T4, U373-CD4-CXCR4/CCR5 cells. The procedure:
as §1

Series [10] concerns Vesicular stomatitis virus. As to the kind of experiment: microbe, parasite or virus in culture. The series is classed as cell-based.
The test system of series [11] is Influenza A/H3N2 A/HK/7/87. As to the kind of experiment: Broad spectrum antiviral activity, MDCK cells. The series is classed as cell-based. The conditions noted are these: Influenza A virus.
Series [12] deals with Reovirus-1. As to the kind of experiment: Broad spectrum antiviral activity, vero cells. The series is classed as cell-based.
Series [13] has as its system PBMCs. The series is classed as cell-based, human. How it is done:
To measure apoptosis, PBMCs were incubated with or without drugs in a 96-well round bottom plate at 2 × 10^5/200 μL/well. After 2 days, cells were washed with PBS and stained with 2.5 μL Annexin-V-APC (Biosciences, Aalst, Belgium) in 100 μL staining buffer containing 10 mmol/L HEPES pH7.4, 140 mmol/L NaCl, and 2.5 mmol/L CaCl2 for 20 min at room temperature in dark. Cells were then washed with staining buffer and incubated with 100 μL 0.1 μg/mL propidium iodide (PI) (Thermo Fisher, Asse, Belgium) for 5 min at room temperature in dark. Stained cells were measured by flow cytometry (FACSCanto, BD, Aalst, Belgium).

Series [14] concerns Herpes simplex virus-1 TK KOS ACV. As to the kind of experiment: Broad spectrum antiviral activity, HEL cells. The series is classed as cell-based. The conditions noted are these: Human alphaherpesvirus 1, HEL.
In series [15] the test system is non-B HIV-1 primary clinical isolate #2. As to the kind of experiment: microbe, parasite or virus in culture. The following applies: Human immunodeficiency virus 1, PBMC, 168 h, read-out: IC50 non-B HIV-1 primary clinical isolate (second named).
In series [16] the test system is Para-influenza-3 virus. As to the kind of experiment: organism not typed. The series is classed as cell-based. The following applies: vero cells.
Series [17] deals with DC-SIGN-captured virus transmission to CD4+ T cells. As to the kind of experiment: HIV-1 DC-SIGN transmission assay. Format: cell-based. The conditions noted are these: in vitro, data not shown. The procedure:
Dual chamber transmission assay was performed as previously described. HeLa cells were seeded into an upper chamber of a transwell plate (Sigma-Aldrich, Liège, Belgium), while TZM-bl cells were seeded in the lower chamber. Trans Epithelial Electric Resistance (TEER) was measured using Millicell-ERS Volt-Ohm Meter. HIV-1 ADA-M (200 pg) and drugs were added to the upper chamber after 4 days when TEER reached 150 Ohm/cm^2. 24 h after infection luciferase value of TZM-bl cells lysate was measured using the Luciferase System Kit and the POLARstar Omega Plate Reader. Data were analyzed using GraphPrism. The HIV-1 DC-SIGN transmission assay was performed as previously described.

For series [18], the system named is HIV-1 gp120 / CD4 binding. As to the kind of experiment: CD4-gp120 interaction assay (ELISA). The conditions noted are these: in-house ELISA. How it is done:
Human soluble CD4 (sCD4) was immobilized in a 96-well plate by adding 100 ng sCD4 (R&D Systems, Belgium) in 100 μL PBS per well and incubated at 4 °C. After 24 h, the CD4 coated plate was washed with 1% BSA-PBS and blocked by adding 100μL 5% BSA-PBS per well for 1 h at 4 °C. The coated plate was then washed and incubated with or without drugs for 1 h at 4 °C. After washing, 100 ng HIV-1 gp120 protein (Fitzgerald, Acton, MA, USA) was added into the plate and kept for 1 h at 4 °C. The plate was washed, and anti-HIV-1 gp120 (Aalto Bio Reagents, Dublin, Ireland) (100 ng/100 μL PBS) was added. After 1 h, the plate was washed and anti-sheep HRP (Sigma, Belgium) (100 ng/100 μL PBS) was added. After 1 h incubation at 4 °C, 100 μL o-phenylenediamine dihydrochloride (OPD) (Thermo Fisher, Asse, Belgium) was added and incubated for 20 min in dark. One hundred microliters 0.5M H2SO4 was finally added to stop the reaction. OD492 and OD630 were measured by POLARstart Omega Plate Reader. OD492 − OD630 was calculated.
A general note: In an ELISA, binding on a coated surface is turned into a signal by an enzyme label.

Series [19] concerns HIV-1. The following applies: read-out: IC50 HIV-1 replication; ref Clouser et al. [24]; cited from earlier work.

T1 sequence (P61073 whole entry): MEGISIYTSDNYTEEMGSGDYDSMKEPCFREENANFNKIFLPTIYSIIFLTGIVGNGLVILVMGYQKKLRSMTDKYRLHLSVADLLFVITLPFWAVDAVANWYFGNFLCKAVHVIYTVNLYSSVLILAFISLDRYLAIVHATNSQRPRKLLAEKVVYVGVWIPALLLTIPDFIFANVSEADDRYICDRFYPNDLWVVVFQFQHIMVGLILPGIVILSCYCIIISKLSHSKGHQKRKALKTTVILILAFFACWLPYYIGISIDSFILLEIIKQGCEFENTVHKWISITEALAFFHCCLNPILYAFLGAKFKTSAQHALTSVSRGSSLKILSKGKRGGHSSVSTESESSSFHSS
T2 sequence (P51681 whole entry): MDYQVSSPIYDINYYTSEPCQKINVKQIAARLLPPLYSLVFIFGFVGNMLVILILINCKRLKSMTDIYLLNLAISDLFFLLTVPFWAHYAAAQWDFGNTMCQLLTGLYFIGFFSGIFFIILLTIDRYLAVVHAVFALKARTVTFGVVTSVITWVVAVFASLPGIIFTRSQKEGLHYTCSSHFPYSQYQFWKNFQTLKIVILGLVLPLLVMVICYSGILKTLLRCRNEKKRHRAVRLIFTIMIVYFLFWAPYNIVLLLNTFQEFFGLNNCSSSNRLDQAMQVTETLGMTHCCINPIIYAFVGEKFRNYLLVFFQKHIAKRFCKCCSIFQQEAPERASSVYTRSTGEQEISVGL

By IC50 is commonly meant the point on the concentration scale where inhibition reaches its midpoint. As for `Oc1cc(O)cc(/C=C/c2ccc(O)c(O)c2)c1` [piceatannol, trans-3,3′,4,5′-tetrahydroxystilbene], the IC50 was 37.7 ± 12.5 µM in series [1]; over 100 µM in [2]; about 45 µM in [3]; over 100 µM in [4]; over 100 µM in series [5]; 19.9 ± 0.22 µM in series [7]. Besides, the IC50 was 79.2 ± 17 µM in [10]; 79.2 ± 17.2 µM in [10] (Vesicular stomatitis virus, U-87 MG); over 100 µM in [11]; over 100 µM in [12]; 45.4 ± 4 µM in [14]; 8.04 ± 3.07 µM in series [15]. The IC50 was over 100 µM in series [16] and 21.4 µM in series [19]. The “Inhibition of CXCR4 binding” value in [6] is “neither CE nor piceatannol did”. The “Inhibition of CCR5 binding” value in series [8] was “neither CE nor piceatannol did”. Besides, in series [9], the “Inhibition of anti-CD4 antibodies binding to CD4” value is listed as “neither CE nor piceatannol did”. Also, the “Induction of apoptosis in PBMCs” value in series [13] is recorded as “did not induce any apoptosis”. For the same compound, the “Prevention of transmission of DC-SIGN-captured virus to CD4+ T cells” value in [17] is given as “did not prevent”. For the same compound, in series [18], the “Inhibition of gp120/CD4 binding” value is listed as “did not”.
